Reference: patent US6239146A, “Neurotrophic difluoroamide agents” (Bristol-Myers Squibb Company, priority 2000, dated 2001)

Target: FKBP12 (Homo sapiens, UniProt P62942)
Assay: FKBP12 Rotamase Inhibition Assay
Type: biochemical
Conditions: for Ki: 4° C., chymotrypsin-coupled, succinyl-Ala-Leu-Pro-Phe-p-nitroanilide substrate, read-out: Ki (apparent Ki for inhibition of rotamase activity); for inhibition at 10 µM: read-out: Percent Inhibition at 10 μM (rotamase)

Sequence of FKBP12 (P62942 whole entry, species assumed): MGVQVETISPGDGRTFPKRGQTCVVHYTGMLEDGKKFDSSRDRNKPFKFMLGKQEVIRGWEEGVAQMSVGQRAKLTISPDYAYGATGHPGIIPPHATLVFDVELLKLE

Structure (SMILES) | Ki [nM] | inhibition at 10 µM [%]
COc1cc(C(F)(F)C(=O)N2CCC[C@H]2C(=O)OCCCc2ccccc2)cc(OC)c1OC [Example 1] | 1300 | 97
COc1cc(C(F)(F)C(=O)N2CCC[C@H]2C(=O)OCCCc2cccnc2)cc(OC)c1OC [Example 2] | 877 | –
COc1cc(C(F)(F)C(=O)N2CCC[C@H]2C(=O)OC(CCCc2ccccc2)CCCc2cccnc2)cc(OC)c1OC (stereo partly shown) [Example 3] | 104 | 97
COc1cc(C(F)(F)C(=O)N2CCCC[C@H]2C(=O)OC(CCCc2ccccc2)CCCc2cccnc2)cc(OC)c1OC (stereo partly shown) [Example 4] | – | 98

Other lines, results leading:

Ki [nM] | inhibition at 10 µM [%] | Structure (SMILES)
– | 70 | COc1cc(C(F)(F)C(=O)N2CCC[C@H]2C(=O)OC(C)(C)CCc2ccccc2)cc(OC)c1OC [Example 5]
83 | 100 | COc1cc(C(F)(F)C(=O)N2CCC[C@H]2C(=O)OC(CCc2ccccc2)c2ccccc2)cc(OC)c1OC (stereo partly shown) [Example 6]
– | 94 | COc1cc(C(F)(F)C(=O)N2CCCC[C@H]2C(=O)OC(CCc2ccccc2)c2ccccc2)cc(OC)c1OC (stereo partly shown) [Example 7]
– | 38 | COc1cc(CCCOC(=O)[C@@H]2CCCN2C(=O)C(F)(F)c2cc(OC)c(OC)c(OC)c2)cc(OC)c1OC [Example 8]
109 | 99 | COc1cc(CCCOC(=O)[C@@H]2CCCCN2C(=O)C(F)(F)c2cc(OC)c(OC)c(OC)c2)cc(OC)c1OC [Example 9]
